# Results from US12215215B2, “Stabilizer compositions and methods for using same for protecting polymeric organic materials from UV light and thermal degradation” (Cytec Industries Inc., priority 2014, dated 2025).
# Assay: Solubility of triazine UV absorbers in cyclohexane at room temperature
# Format: physicochemical
# Details: room temperature (20° C.)
# Excerpt: UV stabilizers and co-additives. […] Solubility measurements of various orthohydroxyphenyl triazines in cyclohexane (substitute for polypropylene) conducted at room temperature indicate that such triazines having a solubility greater than 0.04 wt. % can be used in certain embodiments as the UV absorber of the stabilizer compositions described herein.
row,Solubility of triazines in Cyclohexane at room temperature,Structure (SMILES)
1,1.4 ± 0.2 weight %,"CCCCCCCCOc1ccc(-c2nc(-c3ccc(C)cc3C)nc(-c3ccc(C)cc3C)n2)c(O)c1 [UV-1164, 2-[4,6-bis(2,4-dimethylphenyl)-1,3,5-triazin-2-yl]-5-(octyloxy) phenol]"
2,>0.04% weight %,"CCCCCCCCOc1ccc(-c2nc(-c3ccc(OCCCCCCCC)cc3O)nc(-c3ccc(OCCCCCCCC)cc3O)n2)c(O)c1 [Formulation P-800, 2,4,6-tris(2-hydroxy-4-octyloxy-phenyl)-1,3,5-triazine]"
